Measured values from patent publication US20090264310A1, “SCREENING METHOD FOR THE ISOLATION OF CENTROSOMAL CLUSTER-INHIBITORS AS ANTI-CANCER AGENTS” (priority 2006, published 2009).

Key:
BJ fibroblasts [1] = test: Induction of multipolar mitotic spindles (immunofluorescence); assay type: cell-based, human; details: 24 hours
Experimental: (§1) All cell lines (BJ fibroblasts (available from ATCC), SCC114 (18), HeLa (ATCC), MCF7 (ATCC), N115 and U2OS (ATCC) were cultured in Dulbecco's modified Eagle's Medium (DMEM, PAA Laboratories, Pasching, Germany) supplemented with 10% FCS (PAA), 20 U/ml penicillin and 20 μg/ml streptomycin (Biochrom, Berlin, Germany) at 37° C., 5% CO2. SCC114-D1 cells stably expressing GFP-α-tubulin were generated by transfection (Fugene 6, Roche Diagnostics, Mannheim, Germany) of the transgene in pEGFP-C1 (Clontech, Heidelberg, Germany) and maintained under selective pressure by addition of geniticin (Gibco, Invitrogen, Karlsruhe, Germany) into complete medium at a concentration of […]. When indicated, griseofulvin (Sigma, Deisenhofen, Germany) was added to culture medium at several concentrations (0-100 μM), and incubation was continued for 24-72 h. Griseofulvin was dissolved in DMSO (Sigma); the final DMSO concentration in all experiments was 0.1%.
(§2) Cells grown on glass coverslips were fixed in −20° C. methanol/acetone (1:1) for 7 min. After blocking non-specific sites with 10% goat serum (Sigma)/PBS for 5 min, the cells were incubated with primary antibodies for 1 h. Unlabelled antibodies were used at following dilutions: mouse monoclonal antibody to Eg5, 1:500 (Transduction Laboratories, Lexington, Ky.); mouse monoclonal antibody to γ-tubulin (GTU-88) at 1:300, rabbit polyclonal antibody to γ-tubulin at 1:100, and mouse monoclonal antibody to α-tubulin at 1:500 (Sigma, Deisenhofen, Germany); rabbit anti-phospho-histone H3, 1:500 (Upstate Biotechnology, Lake Placid, N.Y.); mouse monoclonal antibody to dynein, 1:50 (Chemicon International, Hampshire, UK); mouse monoclonal antibody to NuMA, 1:50 (Calbiochem, Darmstadt, Germany). Coverslips were then washed three times with PBS and incubated with secondary antibodies for 25 min before adding DAPI to a final concentration of 0.1 μg/ml (Sigma) to the antibody dilution for additional 5 min. The following fluorchrome-conjugated secondary antibodies were used: rabbit Alexa 488, 1:1000 (Molecular Probes, Invitrogen, Karlsruhe, Germany) and mouse Cy3, 1:400 (Jackson ImmunoResearch Laboratories, West Grove, PN). Coverslips were washed three times with PBS, rinsed shortly with water and post-fixed in absolute ethanol for 1 min. Airdryed Coverslips were embedded in Vectashield (Vector Laboratories, Burlingame, Calif.) or Fluoromount G (Southern Biotech, Birmingham, Ala.). Immunostained cells were examined using a Zeiss Axiovert 200 M fluorescence microscope (Göttingen, Germany) and images were processed with Photoshop (Adobe, München, Germany) software.

HeLa cells [2] = test: as above; assay type: cell-based, human; details: 100 μM griseofulvin, 24 hours
Experimental: as §1, §2

MCF7 cells = test: as above; assay type: cell-based, human; details: 24 hours
Experimental: as §1, §2

SCC114 cells [3] = test: as above; assay type: cell-based, human; details: SCC114, 20 μM griseofulvin, 24 hours
Experimental: as §1, §2

U2OS cells = test: as above; assay type: cell-based, human; details: 100 μM griseofulvin, 24 hours
Experimental: as §1, §2

BJ fibroblasts [4] = test: G2/M cell cycle arrest, propidium iodide flow cytometry; assay type: cell-based, human; details: 20 μM griseofulvin, 24 hours
Experimental: (§3) Cells were plated in 6-well plates (Greiner Bio-One, Kremsmuenster; Austria), treated 24 h later with different concentrations of griseofulvin and incubated for 24 h. Both attached and unattached cells were harvested and washed with PBS. For cell cycle, analysis cells were fixed in −20° C. methanol (70%) for at least 45 min. Cells were then washed with PBS and incubated in propidiumodide buffer containing 0.01 mg/ml propidiumiodide (Molecular Probes) and 0.25 mg/ml RNase A (Roth, Karlsruhe, Germany) for 30 min. For the histone H3-assay, cells were fixed in 70% ethanol, incubated with 0.25% Triton X-100/PBS for 15 min on ice, and stained with rabbit antibody to phospho-histone H3 (1:500; Upstate Biotechnology) for 2 h at room temperature, followed by 1 h of incubation with Alexa 488 conjugated anti-rabbit IgG (1:1000; Molecular Probes). DNA was counterstained with propidiumiodide buffer (see above) for 30 minutes at 37° C. Cells were analyzed with a FACScan flow cytometer (Becton Dickinson, Heidelberg, Germany) using CellQuest Software.

HeLa cells [5] = test: as above; assay type: cell-based, human; details: 20 μM griseofulvin, 24 hours
Experimental: as §3

SCC114 cells [6] = test: as above; assay type: cell-based, human; details: SCC114, 20 μM griseofulvin, 24 hours
Experimental: as §3

BJ fibroblasts [7] = test: Mitotic cells by phospho-histone H3 two-parameter flow cytometry; assay type: cell-based, human; details: 35 μM griseofulvin, 24 hours (4.1% prior to treatment)
Experimental: as §3

SCC114 cells [8] = test: as above; assay type: cell-based, human; details: SCC114, 35 μM griseofulvin, 24 hours (29.1% prior to treatment)
Experimental: as §3

[9] = Colorimetric MTT cytotoxicity assay; assay type: cell-based; details: human, SCC114 cells, SCC114, 0-100 μM, read-out: IC50 cytotoxicity / half-maximal inhibition of cell growth
Experimental: (§4) The cytotoxicity assay was performed as previously described (53). Briefly, MTT (Thiazolyl Blue Tetrazolium Blue; Sigma) was dissolved in PBS at 5 mg/ml and filtered. 0.3×10^5 cells were plated in 96 well plates (Nunc) 24 h before addition of griseofulvin. Cells were then treated with different concentrations of griseofulvin for 22 h. Stock MTT solution (10 μl per 100 μl medium) was added to all wells, and plates were incubated additional 2 h at 37° C. Medium was discarded, 200 μl DMSO was added to each well and incubated for 20 minutes at 37° C. When all crystals were dissolved, the plates were read on a microtiterplate […] reader (Tecan, Crailsheim, Germany), using a test wavelength of 650 nm and a reference wavelength of 750 nm.

BJ fibroblasts [10] = test: Colorimetric MTT cytotoxicity assay; assay type: cell-based; details: Homo sapiens, Fibroblast, highest concentration 100 μM, read-out: growth inhibition
Experimental: as §4

[11] = system: N115 mouse neuroblastoma cells; test: Inhibition of centrosome coalescence and microtubule network in interphase cells (immunofluorescence); assay type: cell-based; details: N115, 50 μM griseofulvin, 24 hours
Experimental: as §1
Cells grown on glass coverslips were fixed in −20° C. methanol/acetone (1:1) for 7 min. After blocking non-specific sites with 10% goat serum (Sigma)/PBS for 5 min, the cells were incubated with primary antibodies for 1 h. […] Immunostained cells were examined using a Zeiss Axiovert 200 M fluorescence microscope (Göttingen, Germany) and images were processed with Photoshop (Adobe, München, Germany) software. […]

SCC114 cells [12] = test: Dynein and NuMA localization on mitotic spindles (immunofluorescence); assay type: cell-based, human; details: SCC114, 100 μM griseofulvin, 24 hours
Experimental: as §2, with “The following fluorchrome-conjugated secondary antibodies were used: rabbit Alexa 488, 1:1000 (Molecular Probes, Invitrogen, Karlsruhe, Germany) and mouse Cy3, 1:400 (Jackson ImmunoResearch Laboratories, West Grove, PN). Coverslips were washed three times with PBS, rinsed shortly with water and post-fixed in absolute ethanol for 1 min. Airdryed Coverslips were embedded in Vectashield (Vector Laboratories, Burlingame, Calif.) or Fluoromount G (Southern Biotech, Birmingham, Ala.).” left out, “software. […]” for “software.”

COC1=CC(=O)C[C@@H](C)[C@]12Oc1c(Cl)c(OC)cc(OC)c1C2=O [griseofulvin]
percentage of metaphases multipolar (BJ fibroblasts [1]; BJ fibroblasts, 20 μM griseofulvin): 3% | percentage of mitotic cells harbouring bipolar spindles (BJ fibroblasts [1]; normal diploid fibroblasts, 100 μM griseofulvin): 87% | percentage of mitoses multipolar (HeLa cells [2]): more than 85% | percentage of multipolar spindles (MCF7 cells; MCF7, 20 μM griseofulvin): 20% | percentage of mitoses multipolar (MCF7 cells; MCF7, 100 μM griseofulvin): more than 85% | percentage of multipolar spindles (SCC114 cells [3]): 53% | percentage of mitoses multipolar (U2OS cells): more than 85% | percentage of cells in G2/M (BJ fibroblasts [4]): 19.1±1.4% | percentage of cells arrested in G2/M phase (HeLa cells [5]): 65.6±7.6% | percentage of cells arrested in G2/M phase (SCC114 cells [6]): 91.2±3.9% | percentage of cells in mitosis (BJ fibroblasts [7]): 5.5% | percentage of cells in mitosis (SCC114 cells [8]): 56.4% | IC50 at 22 h [9]: 35 µM | inhibition at 100 µM (BJ fibroblasts [10]): 25 ± 1% | percentage of interphase cells harbouring only short and convoluted microtubules [11]: 98% | percentage of interphase cells lacking clustering of centrioles into a single aggregate [11]: 68% | percentage of multipolar spindles labelled with antibody to NuMA (SCC114 cells [12]): 99.5±0.5% | percentage of multipolar spindles labelled with antibody to dynein (SCC114 cells [12]): 99±1%
